This note sets out measurements from ChEMBL document CHEMBL4507319 (2021).

Assay [1] has as its target Serine/threonine-protein kinase NIM1 (Homo sapiens) (UniProt Q8IY84). In words: NIM1(h) Eurofins kinase panel. The note with it: Compound concentration 1.0 uM.
Assay [2] concerns the target T1, SNF-related serine/threonine-protein kinase (Homo sapiens) (UniProt Q9NRH2).
T1 sequence (whole entry): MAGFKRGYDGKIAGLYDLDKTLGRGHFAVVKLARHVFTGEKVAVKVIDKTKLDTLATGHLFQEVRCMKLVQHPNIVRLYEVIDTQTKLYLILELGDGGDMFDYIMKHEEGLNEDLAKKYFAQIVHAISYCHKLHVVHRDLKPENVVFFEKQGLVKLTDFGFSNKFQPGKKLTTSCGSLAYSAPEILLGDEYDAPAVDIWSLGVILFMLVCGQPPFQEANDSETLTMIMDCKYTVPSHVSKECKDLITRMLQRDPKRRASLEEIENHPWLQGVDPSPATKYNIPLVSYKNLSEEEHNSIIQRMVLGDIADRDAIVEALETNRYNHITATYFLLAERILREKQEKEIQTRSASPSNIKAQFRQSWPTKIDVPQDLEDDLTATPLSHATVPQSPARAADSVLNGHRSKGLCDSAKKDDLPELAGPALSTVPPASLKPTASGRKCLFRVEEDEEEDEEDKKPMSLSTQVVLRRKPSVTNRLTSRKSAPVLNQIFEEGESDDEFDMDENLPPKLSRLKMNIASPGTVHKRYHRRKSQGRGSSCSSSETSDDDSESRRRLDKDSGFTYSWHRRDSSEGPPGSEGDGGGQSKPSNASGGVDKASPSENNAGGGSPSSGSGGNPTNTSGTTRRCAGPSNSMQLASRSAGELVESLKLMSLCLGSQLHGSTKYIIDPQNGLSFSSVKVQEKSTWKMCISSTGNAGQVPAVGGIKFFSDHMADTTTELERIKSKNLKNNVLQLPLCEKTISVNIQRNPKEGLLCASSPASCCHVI
In words: SNRK(h) Eurofins kinase panel. The note with it: Compound concentration 1.0 uM.

The target of assay [3] is Dual specificity tyrosine-phosphorylation-regulated kinase 1B (Homo sapiens) (UniProt Q9Y463). As to the kind of experiment: DYRK1B(h) Eurofins kinase panel. The note with it: Compound concentration 1.0 uM.
The target in assay [4] is Calcium/calmodulin-dependent protein kinase kinase 2 (Homo sapiens) (UniProt Q96RR4). In words: CaMKK2(h) Eurofins kinase panel. The note with it: Compound concentration 1.0 uM.
Assay [5] addresses Dual specificity mitogen-activated protein kinase kinase 2 (Homo sapiens) (UniProt P36507). As to the kind of experiment: MEK2(h) Eurofins kinase panel. The note with it: Compound concentration 1.0 uM.
In assay [6] the target is T2, cGMP-dependent protein kinase 1 (Homo sapiens) (UniProt Q13976).
T2 sequence (whole entry): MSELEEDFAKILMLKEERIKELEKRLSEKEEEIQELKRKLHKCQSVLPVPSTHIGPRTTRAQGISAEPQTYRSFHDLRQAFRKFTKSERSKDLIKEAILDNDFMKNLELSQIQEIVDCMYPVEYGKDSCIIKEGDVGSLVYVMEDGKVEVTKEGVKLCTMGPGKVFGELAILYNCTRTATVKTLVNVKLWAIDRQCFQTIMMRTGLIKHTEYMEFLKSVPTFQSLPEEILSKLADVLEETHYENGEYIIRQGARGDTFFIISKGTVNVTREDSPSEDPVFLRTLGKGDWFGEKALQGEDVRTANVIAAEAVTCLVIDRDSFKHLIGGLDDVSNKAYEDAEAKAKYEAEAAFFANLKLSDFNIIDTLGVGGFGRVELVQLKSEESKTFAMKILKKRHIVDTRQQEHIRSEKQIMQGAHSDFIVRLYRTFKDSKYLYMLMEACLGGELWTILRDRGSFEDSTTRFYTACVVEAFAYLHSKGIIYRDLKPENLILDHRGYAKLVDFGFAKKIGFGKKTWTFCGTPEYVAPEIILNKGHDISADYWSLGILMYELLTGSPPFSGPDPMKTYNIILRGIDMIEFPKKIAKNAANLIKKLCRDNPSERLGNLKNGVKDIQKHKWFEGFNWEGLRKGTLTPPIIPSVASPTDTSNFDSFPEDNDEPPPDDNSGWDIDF
As to the kind of experiment: PKG1beta (h) Eurofins kinase panel. The note with it: Compound concentration 1.0 uM.

Assay [7] concerns the target Phosphatidylinositol 4-phosphate 5-kinase type-1 alpha (Homo sapiens) (UniProt Q99755). In words: PIP5K1a(h) Eurofins kinase panel. The note with it: Compound concentration 1.0 uM.
Assay [8] concerns the target Dual specificity mitogen-activated protein kinase kinase 1 (Homo sapiens) (UniProt Q02750). As to the kind of experiment: MEK1(h) Eurofins kinase panel. The note with it: Compound concentration 1.0 uM.
The target of assay [9] is 5'-AMP-activated protein kinase catalytic subunit alpha-1 (Homo sapiens, UniProt Q13131). The note with it: Compound concentration 1.0 uM.
The target of assay [10] is Tyrosine-protein kinase BTK (Homo sapiens) (UniProt Q06187). As to the kind of experiment: BTK(h) Eurofins kinase panel. The note with it: Compound concentration 1.0 uM.
The test system of another assay is MDA-MB-453. In words: MDA-MB- 453 cell line Proliferation assay. In kind it is functional, Homo sapiens. The note with it: time 3 day.
Assay [11] has as its target T3, MAP kinase-activated protein kinase 5 (Homo sapiens) (UniProt Q8IW41).
T3 sequence (whole entry): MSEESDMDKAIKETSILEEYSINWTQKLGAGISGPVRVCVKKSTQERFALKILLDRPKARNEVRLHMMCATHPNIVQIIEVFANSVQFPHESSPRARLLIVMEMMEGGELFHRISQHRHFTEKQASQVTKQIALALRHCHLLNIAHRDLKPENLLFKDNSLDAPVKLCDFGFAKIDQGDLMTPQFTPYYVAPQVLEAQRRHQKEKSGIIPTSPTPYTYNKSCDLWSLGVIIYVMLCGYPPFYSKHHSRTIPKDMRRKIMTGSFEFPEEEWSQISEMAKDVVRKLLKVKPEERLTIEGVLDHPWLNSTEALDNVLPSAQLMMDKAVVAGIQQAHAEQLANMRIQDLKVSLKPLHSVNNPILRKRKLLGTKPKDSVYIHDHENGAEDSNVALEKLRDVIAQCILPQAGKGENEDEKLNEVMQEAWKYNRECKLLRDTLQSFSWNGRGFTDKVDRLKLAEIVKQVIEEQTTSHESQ
As to the kind of experiment: PRAK(h) Eurofins kinase panel. The note with it: Compound concentration 1.0 uM.

Assay [12] has as its target TRAF2 and NCK-interacting protein kinase (Homo sapiens) (UniProt Q9UKE5). As to the kind of experiment: TNIK(h) Eurofins kinase panel. The note with it: Compound concentration 1.0 uM.
Assay [13] concerns the target Serine/threonine-protein kinase Nek6 (Homo sapiens) (UniProt Q9HC98). As to the kind of experiment: NEK6(h) Eurofins kinase panel. The conditions noted are these: Compound concentration 1.0 uM.

Chain of Dual specificity mitogen-activated protein kinase kinase 2 (Homo sapiens) (P36507 whole entry): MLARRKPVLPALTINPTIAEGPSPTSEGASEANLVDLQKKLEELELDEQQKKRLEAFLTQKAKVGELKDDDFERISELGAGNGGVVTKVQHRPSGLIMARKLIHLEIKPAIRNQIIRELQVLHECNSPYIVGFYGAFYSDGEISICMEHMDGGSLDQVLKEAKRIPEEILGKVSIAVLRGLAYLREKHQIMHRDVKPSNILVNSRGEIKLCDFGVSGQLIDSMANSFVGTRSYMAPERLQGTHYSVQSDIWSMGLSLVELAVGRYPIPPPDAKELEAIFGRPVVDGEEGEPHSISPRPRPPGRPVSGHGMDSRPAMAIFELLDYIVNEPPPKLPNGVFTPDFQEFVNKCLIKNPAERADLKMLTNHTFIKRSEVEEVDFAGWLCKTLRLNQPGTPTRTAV
Chain of TRAF2 and NCK-interacting protein kinase (Homo sapiens) (Q9UKE5 whole entry, looked up): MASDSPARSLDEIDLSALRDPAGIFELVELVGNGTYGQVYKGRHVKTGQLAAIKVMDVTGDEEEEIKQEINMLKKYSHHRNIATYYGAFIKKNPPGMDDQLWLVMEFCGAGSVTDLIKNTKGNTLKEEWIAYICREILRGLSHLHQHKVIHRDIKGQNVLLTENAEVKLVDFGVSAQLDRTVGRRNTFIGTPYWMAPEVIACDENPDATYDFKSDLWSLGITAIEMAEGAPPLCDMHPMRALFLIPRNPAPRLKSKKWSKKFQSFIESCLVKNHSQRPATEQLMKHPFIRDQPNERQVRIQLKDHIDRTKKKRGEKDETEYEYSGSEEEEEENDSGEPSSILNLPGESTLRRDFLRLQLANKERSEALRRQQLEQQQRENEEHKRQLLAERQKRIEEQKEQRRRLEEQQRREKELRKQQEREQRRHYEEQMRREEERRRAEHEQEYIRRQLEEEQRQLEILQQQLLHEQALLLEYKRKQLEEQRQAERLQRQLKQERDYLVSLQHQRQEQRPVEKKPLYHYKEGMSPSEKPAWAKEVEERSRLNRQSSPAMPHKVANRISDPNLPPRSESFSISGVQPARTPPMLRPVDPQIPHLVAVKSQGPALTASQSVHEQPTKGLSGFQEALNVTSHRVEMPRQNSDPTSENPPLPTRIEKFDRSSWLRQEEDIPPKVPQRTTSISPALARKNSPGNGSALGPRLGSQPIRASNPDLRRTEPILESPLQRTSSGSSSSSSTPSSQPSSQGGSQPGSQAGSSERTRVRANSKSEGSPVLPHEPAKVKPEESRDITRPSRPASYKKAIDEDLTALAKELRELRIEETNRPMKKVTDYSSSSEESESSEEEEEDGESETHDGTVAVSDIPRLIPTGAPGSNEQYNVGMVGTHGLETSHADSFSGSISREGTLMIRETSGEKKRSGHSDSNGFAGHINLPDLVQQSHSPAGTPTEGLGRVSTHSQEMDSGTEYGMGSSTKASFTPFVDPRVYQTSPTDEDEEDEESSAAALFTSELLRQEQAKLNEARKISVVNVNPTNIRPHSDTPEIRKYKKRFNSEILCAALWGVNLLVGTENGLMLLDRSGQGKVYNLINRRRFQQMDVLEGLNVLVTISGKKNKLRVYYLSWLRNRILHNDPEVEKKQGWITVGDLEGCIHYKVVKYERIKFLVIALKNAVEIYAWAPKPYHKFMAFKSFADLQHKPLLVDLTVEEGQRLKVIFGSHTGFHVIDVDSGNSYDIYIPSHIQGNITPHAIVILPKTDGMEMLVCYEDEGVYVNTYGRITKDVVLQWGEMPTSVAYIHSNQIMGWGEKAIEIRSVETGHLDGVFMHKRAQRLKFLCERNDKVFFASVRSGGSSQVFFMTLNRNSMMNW
Chain of Tyrosine-protein kinase BTK (Homo sapiens) (Q06187 whole entry): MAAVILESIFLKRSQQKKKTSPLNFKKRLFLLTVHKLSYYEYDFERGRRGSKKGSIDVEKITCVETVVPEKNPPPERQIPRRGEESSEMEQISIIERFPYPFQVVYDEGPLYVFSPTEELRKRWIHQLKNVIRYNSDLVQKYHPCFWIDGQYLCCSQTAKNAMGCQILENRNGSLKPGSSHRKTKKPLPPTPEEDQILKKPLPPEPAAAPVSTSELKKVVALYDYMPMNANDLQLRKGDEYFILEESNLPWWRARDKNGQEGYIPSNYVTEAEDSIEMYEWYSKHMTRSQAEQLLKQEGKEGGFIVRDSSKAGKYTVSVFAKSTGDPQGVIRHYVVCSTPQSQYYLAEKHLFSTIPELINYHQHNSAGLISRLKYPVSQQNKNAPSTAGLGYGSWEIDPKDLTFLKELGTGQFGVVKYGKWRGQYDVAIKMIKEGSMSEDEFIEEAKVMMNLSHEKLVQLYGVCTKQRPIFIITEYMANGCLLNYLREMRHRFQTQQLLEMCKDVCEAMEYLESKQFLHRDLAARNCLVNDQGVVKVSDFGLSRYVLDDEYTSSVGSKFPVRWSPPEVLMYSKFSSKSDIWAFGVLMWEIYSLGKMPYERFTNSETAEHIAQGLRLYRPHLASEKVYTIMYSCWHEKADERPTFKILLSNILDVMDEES
Chain of Serine/threonine-protein kinase Nek6 (Homo sapiens) (Q9HC98 whole entry): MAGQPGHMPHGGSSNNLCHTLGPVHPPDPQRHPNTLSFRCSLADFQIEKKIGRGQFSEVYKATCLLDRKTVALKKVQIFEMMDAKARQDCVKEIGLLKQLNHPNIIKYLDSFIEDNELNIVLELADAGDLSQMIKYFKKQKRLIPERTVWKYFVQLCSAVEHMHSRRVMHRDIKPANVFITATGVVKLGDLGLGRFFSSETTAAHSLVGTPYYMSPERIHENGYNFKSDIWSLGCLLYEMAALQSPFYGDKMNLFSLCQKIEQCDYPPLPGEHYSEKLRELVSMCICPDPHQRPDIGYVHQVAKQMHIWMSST
Chain of Dual specificity mitogen-activated protein kinase kinase 1 (Homo sapiens) (Q02750 whole entry): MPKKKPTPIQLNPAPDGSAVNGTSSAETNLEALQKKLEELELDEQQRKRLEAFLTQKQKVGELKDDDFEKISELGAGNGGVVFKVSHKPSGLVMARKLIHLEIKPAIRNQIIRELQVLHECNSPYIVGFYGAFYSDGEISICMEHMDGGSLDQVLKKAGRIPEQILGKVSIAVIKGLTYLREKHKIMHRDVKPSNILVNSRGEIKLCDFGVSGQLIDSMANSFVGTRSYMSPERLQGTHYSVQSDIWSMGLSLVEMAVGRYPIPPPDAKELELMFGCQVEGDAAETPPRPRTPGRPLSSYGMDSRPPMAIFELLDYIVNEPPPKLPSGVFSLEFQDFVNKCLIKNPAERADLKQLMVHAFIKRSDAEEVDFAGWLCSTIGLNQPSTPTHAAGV
Chain of Phosphatidylinositol 4-phosphate 5-kinase type-1 alpha (Homo sapiens) (Q99755 whole entry): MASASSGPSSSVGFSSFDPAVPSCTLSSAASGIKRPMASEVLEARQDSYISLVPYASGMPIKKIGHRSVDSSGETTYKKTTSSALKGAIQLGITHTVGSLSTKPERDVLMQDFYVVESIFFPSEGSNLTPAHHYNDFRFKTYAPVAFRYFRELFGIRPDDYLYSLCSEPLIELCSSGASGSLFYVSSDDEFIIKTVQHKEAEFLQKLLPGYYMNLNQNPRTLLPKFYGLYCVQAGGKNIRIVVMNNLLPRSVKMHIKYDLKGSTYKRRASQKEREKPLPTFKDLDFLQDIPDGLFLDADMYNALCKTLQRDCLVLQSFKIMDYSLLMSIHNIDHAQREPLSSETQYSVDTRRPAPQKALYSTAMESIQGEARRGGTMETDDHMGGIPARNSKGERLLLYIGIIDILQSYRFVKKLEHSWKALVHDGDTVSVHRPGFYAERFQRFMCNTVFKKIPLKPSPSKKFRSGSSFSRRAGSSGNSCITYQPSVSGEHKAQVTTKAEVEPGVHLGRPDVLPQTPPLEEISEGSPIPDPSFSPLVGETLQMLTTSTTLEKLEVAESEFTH
Chain of Dual specificity tyrosine-phosphorylation-regulated kinase 1B (Homo sapiens) (Q9Y463 whole entry, looked up): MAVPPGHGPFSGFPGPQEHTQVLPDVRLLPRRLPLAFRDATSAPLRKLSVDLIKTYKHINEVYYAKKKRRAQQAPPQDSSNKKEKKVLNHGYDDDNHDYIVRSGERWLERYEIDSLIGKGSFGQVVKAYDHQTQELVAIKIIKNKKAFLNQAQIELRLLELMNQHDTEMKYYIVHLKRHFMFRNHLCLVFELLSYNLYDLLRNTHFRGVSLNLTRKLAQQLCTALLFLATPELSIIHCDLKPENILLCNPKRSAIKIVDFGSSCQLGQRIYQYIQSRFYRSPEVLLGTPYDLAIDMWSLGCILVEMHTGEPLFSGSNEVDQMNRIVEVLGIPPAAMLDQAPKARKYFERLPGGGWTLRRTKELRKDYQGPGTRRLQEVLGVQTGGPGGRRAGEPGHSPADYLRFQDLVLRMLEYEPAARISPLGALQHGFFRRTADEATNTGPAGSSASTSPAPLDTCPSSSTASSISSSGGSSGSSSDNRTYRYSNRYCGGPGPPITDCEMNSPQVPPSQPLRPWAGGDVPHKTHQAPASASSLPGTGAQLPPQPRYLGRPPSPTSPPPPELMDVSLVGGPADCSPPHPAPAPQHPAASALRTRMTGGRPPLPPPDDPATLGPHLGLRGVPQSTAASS
Chain of Serine/threonine-protein kinase NIM1 (Homo sapiens) (Q8IY84 whole entry): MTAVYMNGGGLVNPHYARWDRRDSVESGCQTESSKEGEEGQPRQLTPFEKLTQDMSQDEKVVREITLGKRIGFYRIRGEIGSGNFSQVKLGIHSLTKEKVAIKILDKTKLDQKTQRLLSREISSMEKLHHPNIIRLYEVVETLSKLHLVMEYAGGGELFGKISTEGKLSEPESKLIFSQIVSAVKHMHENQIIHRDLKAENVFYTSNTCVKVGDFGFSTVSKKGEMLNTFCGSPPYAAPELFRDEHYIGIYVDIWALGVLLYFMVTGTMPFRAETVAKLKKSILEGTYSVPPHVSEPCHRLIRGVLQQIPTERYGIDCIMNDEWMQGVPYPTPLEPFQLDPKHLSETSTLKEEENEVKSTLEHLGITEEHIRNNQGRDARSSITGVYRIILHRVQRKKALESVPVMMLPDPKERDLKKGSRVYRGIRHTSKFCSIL

Regarding `CCc1ccccc1C(=O)Nc1n[nH]c2c(C)c(F)c(C3C(C#N)=C(C)N(C)C(C)=C3C#N)cc12` [BAY-3827], the % residual kinase activity in assay [1] was 93%; in assay [2] it was 113%; in assay [3], 99%; in assay [4], 101%; in [5] it was 112%; in [6], 78%. The % residual kinase activity in assay [7] was 100%; in assay [8], 90%; in assay [9], 1%; in assay [10], 96%; in assay [11], 87%; in assay [12] it was 49%. In [13], the % residual kinase activity was 94%. For the same compound, the “Cell Proliferation IC50” value in the assay with MDA-MB-453 was found to be 14.6 µM.
